According to patent publication US20260285850A1, “SUBSTITUTED OXAZOLIDINONES AND IMIDAZOLINONES AS HERBICIDES” (FMC CORPORATION, priority 2023, published 2026):

Columns and labels:
Format in all cases: in vivo
[1] = test system: green foxtail (Setaria viridis); experiment: Test A preemergence soil spray, visual injury rating 0-100; conditions: 10 days
How it was run: (§1)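 Directed preemergence spray onto seeded soil or postemergence spray onto 2-10 cm plants (loam plus sand); compound carried in surfactant-containing non-phytotoxic solvent. Injury rated by eye after 10 d greenhouse growth; 0 = no effect, 100 = complete control.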

soybean (Glycine max) [2] = experiment: as above; conditions: 10 days
How it was run: as §1

[3] = test system: oat, wild (wild oat, Avena fatua); experiment: as above; conditions: 10 days
How it was run: as §1

[4] = test system: ragweed (common ragweed, Ambrosia artemisiifolia); experiment: as above; conditions: 10 days
How it was run: as §1

[5] = test system: palmer (palmer amaranth, palmer pigweed, Amaranthus palmeri); experiment: as above; conditions: 10 days
How it was run: as §1

kochia (Bassia scoparia) [6] = experiment: as above; conditions: 10 days
How it was run: as §1

[7] = test system: barnyardgrass (Echinochloa crus-galli); experiment: as above; conditions: 10 days
How it was run: as §1

[8] = test system: wheat (Triticum aestivum); experiment: as above; conditions: 10 days
How it was run: as §1

[9] = test system: blackgrass (Alopecurus myosuroides); experiment: as above; conditions: 10 days
How it was run: as §1

[10] = test system: ryegrass, Italian (italian ryegrass, Lolium multiflorum); experiment: as above; conditions: 10 days
How it was run: as §1

corn (Zea mays) [11] = experiment: as above; conditions: 10 days
How it was run: as §1

[12] = test system: barnyardgrass (Echinochloa crusgalli); experiment: Test B flooded paddy test, visual plant response rating 0-100; conditions: 250 g ai/ha, Flood, applied to paddy water, evaluated after 13 days
How it was run: (§2)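 Treatment occurs at the 2-leaf stage by adding compound to floodwater standing 3 cm above the soil, a level kept for the whole test. Plants stay in the greenhouse 13 days before visual comparison with controls.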

[13] = test system: sedge, umbrella (small-flower umbrella sedge, Cyperus difformis); experiment: as above; conditions: 250 g ai/ha, Flood, applied to paddy water, evaluated after 13 days
How it was run: as §2

rice (Oryza sativa) = experiment: as above; conditions: 250 g ai/ha, Flood, applied to paddy water, evaluated after 13 days
How it was run: as §2

[14] = test system: ducksalad (Heteranthera limosa); experiment: as above; conditions: 250 g ai/ha, Flood, applied to paddy water, evaluated after 13 days
How it was run: as §2

[15] = test system: green foxtail (Setaria viridis); experiment: Test A postemergence application, visual injury rating 0-100
How it was run: as §1

soybean (Glycine max) [16] = experiment: as above
How it was run: as §1

[17] = test system: oat, wild (wild oat, Avena fatua); experiment: as above
How it was run: as §1

[18] = test system: horseweed (Erigeron canadensis); experiment: as above
How it was run: as §1

[19] = test system: ragweed (common ragweed, Ambrosia artemisiifolia); experiment: as above
How it was run: as §1

[20] = test system: palmer (palmer amaranth, palmer pigweed, Amaranthus palmeri); experiment: as above
How it was run: as §1

kochia (Bassia scoparia) [21] = experiment: as above
How it was run: as §1

[22] = test system: barnyardgrass (Echinochloa crus-galli); experiment: as above
How it was run: as §1

[23] = test system: galium (catchweed bedstraw, Galium aparine); experiment: as above
How it was run: as §1

[24] = test system: wheat (Triticum aestivum); experiment: as above
How it was run: as §1

[25] = test system: blackgrass (Alopecurus myosuroides); experiment: as above
How it was run: as §1

[26] = test system: ryegrass, Italian (italian ryegrass, Lolium multiflorum); experiment: as above
How it was run: as §1

corn (Zea mays) [27] = experiment: as above
How it was run: as §1

[28] = 62 g ai/ha, 0 = no effect, 100 = complete control
[29] = 62 g ai/ha, postemergence, 10 days, 0 = no effect, 100 = complete control
[30] = Postemergence, 16 g ai/ha, greenhouse 10 days, 0 no effect, 100 complete control

`CC(C)COC(=O)C1=CCC(NC(=O)C2(C)CN(c3cc(Cl)cc(Cl)c3)C(=O)O2)C1` (stereo not shown) [Compound 156] was tested, and the “Foxtail, Green plant response rating” value ([1]; 16 g ai/ha, 0 to 100 scale) was 40, the “Foxtail, Green plant response rating (0-100)” value [1, 28] was 90 and the “Soybean plant response rating” value (soybean (Glycine max) [2]; 16 g ai/ha, 0 to 100 scale) was 0. The “Soybean plant response rating (0-100)” value (soybean (Glycine max) [2]; [28]) was 0, the “Oat, Wild plant response rating” value ([3]; 16 g ai/ha, 0 to 100 scale) was 0 and the “Oat, Wild plant response rating (0-100)” value [3, 28] was 0. For the same compound, the “Ragweed plant response rating” value ([4]; 16 g ai/ha, 0 to 100 scale) was 0, the “Ragweed plant response rating (0-100)” value [4, 28] was 0 and the “Pigweed, Palmer plant response rating” value ([5]; 16 g ai/ha, 0 to 100 scale) was 20. For the same compound, the “Pigweed, Palmer plant response rating (0-100)” value [5, 28] was 80, the “Kochia plant response rating” value (kochia (Bassia scoparia) [6]; 16 g ai/ha, 0 to 100 scale) was 20 and the “Kochia plant response rating (0-100)” value (kochia (Bassia scoparia) [6]; [28]) was 70. For the same compound, the “Barnyardgrass plant response rating” value ([7]; 16 g ai/ha, 0 to 100 scale) was 0, the “Barnyardgrass plant response rating (0-100)” value [7, 28] was 50 and the “Wheat plant response rating” value ([8]; 16 g ai/ha, 0 to 100 scale) was 10. For the same compound, the “Wheat plant response rating (0-100)” value [8, 28] was 50, the “Blackgrass plant response rating” value ([9]; 16 g ai/ha, 0 to 100 scale) was 0 and the “Blackgrass plant response rating (0-100)” value [9, 28] was 30. For the same compound, the “Ryegrass, Italian plant response rating” value ([10]; 16 g ai/ha, 0 to 100 scale) was 0, the “Ryegrass, Italian plant response rating (0-100)” value [10, 28] was 30 and the “Corn plant response rating” value (corn (Zea mays) [11]; 16 g ai/ha, 0 to 100 scale) was 0. The “Corn plant response rating (0-100)” value (corn (Zea mays) [11]; [28]) was 50, the “Plant response rating, Barnyardgrass (0 to 100 scale, 0 is no effect and 100 is complete control)” value [12] was 55 and the “Plant response rating, Sedge, Umbrella (0 to 100 scale, 0 is no effect and 100 is complete control)” value [13] was 90. For the same compound, the “Plant response rating, Rice (0 to 100 scale, 0 is no effect and 100 is complete control)” value (rice (Oryza sativa)) was 45, the “Plant response rating, Ducksalad (0 to 100 scale, 0 is no effect and 100 is complete control)” value [14] was 75 and the “Foxtail, Green plant response rating (0-100)” value [15, 29] was 90. The “Foxtail, Green plant response rating (0 to 100 scale)” value [15, 30] was 80, the “Soybean plant response rating (0-100)” value (soybean (Glycine max) [16]; [29]) was 60 and the “Soybean plant response rating (0 to 100 scale)” value (soybean (Glycine max) [16]; [30]) was 50. The “Oat, Wild plant response rating (0-100)” value [17, 29] was 70, the “Oat, Wild plant response rating (0 to 100 scale)” value [17, 30] was 20 and the “Horseweed plant response rating (0-100)” value [18, 29] was 80. The “Horseweed plant response rating (0 to 100 scale)” value [18, 30] was 30, the “Ragweed plant response rating (0-100)” value [19, 29] was 50 and the “Ragweed plant response rating (0 to 100 scale)” value [19, 30] was 30. For the same compound, the “Pigweed, Palmer plant response rating (0-100)” value [20, 29] was 90, the “Pigweed, Palmer plant response rating (0 to 100 scale)” value [20, 30] was 90 and the “Kochia plant response rating (0-100)” value (kochia (Bassia scoparia) [21]; [29]) was 80. For the same compound, the “Kochia plant response rating (0 to 100 scale)” value (kochia (Bassia scoparia) [21]; [30]) was 80, the “Barnyardgrass plant response rating (0-100)” value [22, 29] was 100 and the “Barnyardgrass plant response rating (0 to 100 scale)” value [22, 30] was 100. For the same compound, the “Galium plant response rating (0-100)” value [23, 29] was 80, the “Galium plant response rating (0 to 100 scale)” value [23, 30] was 80 and the “Wheat plant response rating (0-100)” value [24, 29] was 70. For the same compound, the “Wheat plant response rating (0 to 100 scale)” value [24, 30] was 50, the “Blackgrass plant response rating (0-100)” value [25, 29] was 90 and the “Blackgrass plant response rating (0 to 100 scale)” value [25, 30] was 70. For the same compound, the “Ryegrass, Italian plant response rating (0-100)” value [26, 29] was 70, the “Ryegrass, Italian plant response rating (0 to 100 scale)” value [26, 30] was 60 and the “Corn plant response rating (0-100)” value (corn (Zea mays) [27]; [29]) was 100. For the same compound, the “Corn plant response rating (0 to 100 scale)” value (corn (Zea mays) [27]; [30]) was 90.
